Assay results taken from patent EP0863156A1, “Peptides useful as somatostatin antagonists” (American Cyanamid Company, priority 1997, dated 1998).

Experiments:
SSTR2 [1] = target: T1, SSTR2 (Rattus norvegicus, UniProt P30680); test: cAMP accumulation in forskolin-stimulated GH4C1/SSTR2 cells (SPA radioimmunoassay); format: cell-based; set-up: expressed in transfected cells; host or cells: GH4C1 rat pituitary tumor cells (GH4C1/SSTR2); conditions: cAMP level, dose response of SRIF agonist + 10 µM peptide 1, forskolin stimulated cells
Text: A primary effect of SRIF upon mammalian cells is the reduction of cyclic adenosine 3',5'-monophosphate(cAMP) levels, via inhibition of adenylyl cyclase. This is the basis of a common assay for SRIF agonists and antagonists, whereby SRIF agonists reduce artificially stimulated cAMP levels, and SRIF antagonists reverse the effect of SRIF. The rat pituitary tumor cell line GH4C1 predominantly expresses SSTR2, and responds to SRIF and to forskolin, a stimulator of adenylate cyclase (see C.M. Eppler, et al., J. Biol. Chem., 267, 15603-15612, 1992, incorporated herein by reference). […] This increases the response to SRIF and provides a greater dynamic range for the measurement of SRIF antagonist activity.
Stimulation of cells. GH4C1/SSTR2 cells, grown in DMEM with 10% bovine serum, are released from a tissue culture dish by incubation for several minutes at 37° C with PBS containing 0.5 mM EDTA. Cells are washed in induction buffer (PBS containing 100 µM IBMX (an inhibitor of cAMP breakdown) and 2 mM CaCl2) at room temperature, and resuspended at 2 x 10^6/mL in induction buffer. Into each well of a 96-well tray are added 50 µL of a 2 X concentration of stimulants in induction buffer. […] Baseline cAMP levels are determined in samples with no added forskolin or SRIF, and each treatment is performed in triplicate.
cAMP assay. […] The 96-well tray is sealed, shaken at room temperature overnight and measured for bound radioligand in a MicroBeta liquid scintillation counter (Wallac, Gaithersburg. MD). The standard curve is determined for each experiment by performing a nonlinear regression (exponential decay) analysis of cpm measured for the cAMP standards vs. their log concentrations, and test sample values are determined by using Prism software (Graphpad Software Inc., San Diego, CA) and are shown in Table II and Figure 1.
The intrinsic activity of an SRIF antagonist is the percent reversal of the SSTR2 activation by SRIF or MK678, wherein 0% is defined by cAMP levels in samples treated with forskolin plus SRIF or MK678 and 100% is the cAMP level measured after treatment with forskolin alone. […]

[2] = target: SRIF receptors expressed in S. cerevisiae (yeast) LY364 cells; test: cell-based or functional assay
SSTR2 [3] = target: T1, SSTR2; test: cAMP accumulation in forskolin-stimulated GH4C1/SSTR2 cells (SPA radioimmunoassay); format: cell-based; set-up: expressed in transfected cells; host or cells: GH4C1 rat pituitary tumor cells; conditions: test peptide 2 µM; percent reversal of SSTR2 activation by SRIF or MK678; 0% = forskolin plus agonist, 100% = forskolin alone
Experimental: This is the basis of a common assay for SRIF agonists and antagonists, whereby SRIF agonists reduce artificially stimulated cAMP levels, and SRIF antagonists reverse the effect of SRIF. […] This increases the response to SRIF and provides a greater dynamic range for the measurement of SRIF antagonist activity.
Stimulation of cells. GH4C1/SSTR2 cells, grown in DMEM with 10% bovine serum, are released from a tissue culture dish by incubation for several minutes at 37° C with PBS containing 0.5 mM EDTA. Cells are washed in induction buffer (PBS containing 100 µM IBMX (an inhibitor of cAMP breakdown) and 2 mM CaCl2) at room temperature, and resuspended at 2 x 10^6/mL in induction buffer. Into each well of a 96-well tray are added 50 µL of a 2 X concentration of stimulants in induction buffer. […] To initiate stimulation of the cells, 50 µL (100,000) cells are added to each well, mixed by shaking 10 seconds on a plate shaker and placed at 37° C for 15 minutes. Stimulation is arrested and cells are lysed by adding 15 µL 0.33 N HCI to each well and incubating the plate for 30 minutes at 37° C. Samples are neutralized by addition of 15 µL 0.25 N NaOH/50 mM Hepes pH 7.4. Baseline cAMP levels are determined in samples with no added forskolin or SRIF, and each treatment is performed in triplicate.
cAMP assay. To measure accumulated cAMP in the samples, a radioimmunoassay is employed. The scintillation proximity assay (SPA, Amersham, Arlington Heights, IL) allows the rapid measurement of ^125I cAMP bound to a specific antibody without separating bound radioligand from free radioligand. Each of the following reagents (15 µL) are added per well in a 96-well tray: supernatants from the cell stimulation; ^125I cAMP; SPA beads conjugated to monkey anti-rabbit IgG antibodies; and rabbit anti-cAMP antibodies. For the standard curve, known amounts of cAMP (0.2 - 12.8 pmol) are added in place of cell supernatants. The 96-well tray is sealed, shaken at room temperature overnight and measured for bound radioligand in a MicroBeta liquid scintillation counter (Wallac, Gaithersburg. MD).
The intrinsic activity of an SRIF antagonist is the percent reversal of the SSTR2 activation by SRIF or MK678, wherein 0% is defined by cAMP levels in samples treated with forskolin plus SRIF or MK678 and 100% is the cAMP level measured after treatment with forskolin alone. Therefore, increased intrinsic activity of a test compound indicates increased antagonist activity of said test compound.
An inverse agonist is a compound that is not only a pure antagonist (i.e. lacking agonist activity), but also blocks the constitutive activity of an unoccupied receptor. One indication of inverse agonist activity is the ability of a SRIF antagonist to increase cAMP levels in the absence of added SRIF.

SRIF receptors = target: T2, SRIF receptors (Rattus norvegicus, UniProt P30680); test: Yeast bioassay for SRIF antagonist activity (zone of growth inhibition of LY364 cells growing in response to SRIF); format: cell-based; conditions: Table III; diameter of zone of growth inhibition; 10 µL of 5 mg/mL on filter disk; S-14 10 nM
T2 construct: expressed in transfected cells; host or cells: Saccharomyces cerevisiae strain LY364
Experimental: Agar plates containing LY364 cells that are growing in the presence of added SRIF are the basis for a sensitive SRIF antagonist assay, whereby zones of growth inhibition result from the addition of SRIF antagonists to the surface of the agar plate (see L.A. Price, et al., Molecular and Cellular Biology, 15, 6188-6195, 1995, incorporated herein by reference).
In this assay, LY364 cells are grown overnight in 2 mL of synthetic complete(SC) medium (3.4 g/L YNB without amino acids and ammonium sulfate, 10 g/L ammonium sulfate and 1.4 g/L CSM-ura-trp) with glucose (2%) and without uracil and tryptophan. These cells are washed and cultured for 4 to 8 hours in 5 mL of SC medium with lactate (3%) and without uracil and tryptophan, and finally grown overnight in 5 mL of SC medium with galactose (2%) and without uracil and tryptophan. Molten (50° C) SC agar medium with galactose (2%) and without uracil, tryptophan and histidine is adjusted to pH 6.8 with KOH, mixed with 2 x 10^4 cells/mL and SRIF (S-14, 10 nM) and poured into square (20 x 20 cm) petri dishes. Sterile filter disks are placed on the surface of the agar, and saturated with 10 µL of water or DMSO containing 5 mg/mL test peptides. After three days, the plates display a uniform cloudy background of […] cells growing in response to the added SRIF. […] This zone is quantified by measuring its diameter (mm), which varies according to the potency of the SRIF antagonist. Those peptides or mixtures of peptides displaying the largest zones of inhibition are further characterized.
Values are compared among samples in the same experiment, as the degree of yeast growth varies somewhat from assay to assay. For the first five sample types, in which progressively less complex mixtures of peptides are found, this assay is the primary determining factor in choosing which samples form the basis of subsequent syntheses.
Plates are read after 3 days. Samples shown in Table I in bold type are chosen for further synthesis. In Table I, all amino acids are D-amino acids and dashes represent undefined amino acid residues.

T1 sequence (P30680 whole entry): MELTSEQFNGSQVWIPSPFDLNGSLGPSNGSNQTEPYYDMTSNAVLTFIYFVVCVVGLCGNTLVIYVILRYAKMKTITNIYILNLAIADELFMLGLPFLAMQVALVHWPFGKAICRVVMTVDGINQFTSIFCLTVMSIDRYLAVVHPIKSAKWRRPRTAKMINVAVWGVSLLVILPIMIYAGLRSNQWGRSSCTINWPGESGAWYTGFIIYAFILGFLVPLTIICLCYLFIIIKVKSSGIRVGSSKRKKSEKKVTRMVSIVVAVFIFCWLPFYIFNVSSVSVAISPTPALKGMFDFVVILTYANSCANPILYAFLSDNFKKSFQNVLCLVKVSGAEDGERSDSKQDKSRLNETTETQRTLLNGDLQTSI
T2 sequence (P30680 whole entry): as above

| Compound | Inhibition Zone (mm), yeast bioassay for SRIF antagonist activity (LY364 cells growing on 10 nM S-14; 10 µL of 5 mg/mL peptide on a filter disk) [2] [mm] | cAMP Assay Intrinsic activity (SSTR2 [3]) [%] | Yeast Assay (mm) (SRIF receptors) | also measured |
| --- | --- | --- | --- | --- |
| CC(C)[C@@H]1NC(=O)[C@H](CCCCN)NC(=O)[C@@H](Cc2c[nH]c3ccccc23)NC(=O)[C@H](Cc2ccc(O)cc2)NC(=O)[C@H](C)N(C)C(=O)[C@H](Cc2ccccc2)NC1=O [MK678] |  |  |  | Maximum (SSTR2 [1]): 8.705; Minimum (SSTR2 [1]): 2.775 |
| Ac-His-Phe-Ile-Arg-Trp-Gln-NH2 (all D), Seq Id No. 26 (peptide) | 16 |  |  |  |
| Ac-His-Phe-Ile-Arg-Trp-Ala-NH2 (all D), Seq Id No. 22 (peptide) | 15 |  |  |  |
| h-f-i-w-f [Peptide 10] |  | 25.3 | 14 mm |  |
| f-h-i-r-w-f [Peptide 24] |  | 65.2 | none |  |
| f-r-i-r-w-f [Peptide 25] |  | 10.8 | none |  |
| Peptide 1, Ac-D-His-D-Phe-D-Ile-D-Arg-D-Trp-D-Phe-NH2 | 18 |  |  |  |
| h-f-a-r-w-f [Peptide 4] |  | 41.8 | 16 mm |  |
| H-f-i-r-w-f [Peptide 13] |  | 26.2 | 15 mm |  |
| Ac-His-Phe-Ile-Arg-Trp-Leu-NH2 (all D), Seq Id No. 18 (peptide) | 15 |  |  |  |
| h-f-i-k-w-f [Peptide 27] |  | 71.2 | 20.5 mm |  |
| Ac-His-Phe-Ile-Arg-Trp-Tyr-NH2 (all D), Seq Id No. 20 (peptide) | 16 |  |  |  |
| Ac-His-Phe-Ile-Arg-Trp-Asn-NH2 (all D), Seq Id No. 23 (peptide) | 15 |  |  |  |
| h-f-i-r-w-F [Peptide 18] |  | 46.7 | 19 mm |  |
| f-i-r-w-f [Peptide 7] |  | -7.2 | none |  |
| Ac-His-Phe-Ile-Arg-Trp-Met-NH2 (all D), Seq Id No. 24 (peptide) | 18 |  |  |  |
| a-f-i-r-w-f [Peptide 2] |  | 13.0 | none |  |
| h-f-i-r-f [Peptide 11] |  | 12.1 | 14 mm |  |
| Ac-His-Phe-Ile-Arg-Trp-Trp-NH2 (all D), Seq Id No. 25 (peptide) | 16 |  |  |  |
| h-a-i-r-w-f [Peptide 3] |  | 9.33 | none |  |
| h-f-i-r-W-f [Peptide 17] |  | 50.2 | 19 mm |  |
| h-f-i-r-a-f [Peptide 6] |  | 13.4 | 9 mm |  |
| Ac-His-Phe-Ile-Arg-Trp-Thr-NH2 (all D), Seq Id No. 19 (peptide) | 14 |  |  |  |
| h-f-i-R-w-f [Peptide 16] |  | 43.6 | 17 mm |  |
| Ac-His-Phe-Ile-Arg-Trp-Gly-NH2 (D-amino acids) (peptide) | 13 |  |  |  |
| Ac-His-Phe-Ile-Arg-Trp-Ile-NH2 (all D), Seq Id No. 21 (peptide) | 16 |  |  |  |
| w-h-i-r-w-f [Peptide 22] |  | 27.4 | none |  |
| h-f-v-r-w-f [Peptide 28] |  | 71.2 | 20 mm |  |
| k-y-i-r-w-f [Peptide 19] |  | 33.3 | 9 mm |  |
